Experiment: Analysis of active substance: preservative concentration before and after storage in VI-containing polymer solution
Type: physicochemical
Conditions: for active-substance concentration, 0 d, RT: before storage; for active-substance concentration, 14 d, 40° C.: storage 14 d at 40° C.; for active-substance concentration, 28 d, 40° C.: storage 28 d at 40° C.; for active-substance concentration, 60 d 40° C.: storage 60 d at 40° C.
Description: Stability of Preservatives in VI-Containing Polymers:
The following stabilizers for VI-containing polymers (here: aqueous solution of a copolymer of vinylpyrrolidone and vinylimidazole) were tested.
MIT, BIT, CMIT, OIT, DCOIT and iodopropynyl butyl carbamate were determined by RP chromatography with UV detection after dilution of the sample to be tested. An RP18 column was used for this purpose, with an eluent composed of an acid-methanol mixture under isocratic conditions.

Row | Compound | active-substance concentration, 0 d, RT (in Polymer P1) [ppm] | active-substance concentration, 14 d, 40° C. (in Polymer P1) [ppm] | active-substance concentration, 28 d, 40° C. (in Polymer P1) [ppm] | active-substance concentration, 60 d 40° C. (in Polymer P1) [ppm] | active-substance concentration, 0 d, RT (in Polymer P2) [ppm] | active-substance concentration, 14 d, 40° C. (in Polymer P2) [ppm] | active-substance concentration, 28 d, 40° C. (in Polymer P2) [ppm] | active-substance concentration, 60 d 40° C. (in Polymer P2) [ppm] | active-substance concentration, 0 d, RT (in Polymer P3) [ppm] | active-substance concentration, 14 d, 40° C. (in Polymer P3) [ppm] | active-substance concentration, 28 d, 40° C. (in Polymer P3) [ppm] | active-substance concentration, 60 d 40° C. (in Polymer P3) [ppm] | active-substance concentration, 0 d, RT (in Polymer P4) [ppm] | active-substance concentration, 14 d, 40° C. (in Polymer P4) [ppm] | active-substance concentration, 28 d, 40° C. (in Polymer P4) [ppm] | active-substance concentration, 60 d 40° C. (in Polymer P4) [ppm] | active-substance concentration, 0 d, RT (in Polymer P5 (HP56)) [ppm] | active-substance concentration, 14 d, 40° C. (in Polymer P5 (HP56)) [ppm] | active-substance concentration, 28 d, 40° C. (in Polymer P5 (HP56)) [ppm] | active-substance concentration, 60 d 40° C. (in Polymer P5 (HP56)) [ppm] | further results
1 | O=c1[nH]sc2ccccc12 [BIT, 1,2-benzisothiazolin-3-one] | 150 | 101 | 85 | 69 | 150 | 112 | 93 | 80 | 150 | 119 | 99 | 80 | 150 | 117 | 93 | 82 | 150 | 101 | 85 | 69 | active-substance concentration, 0 d, RT (in Polymer P6): 150 ppm; active-substance concentration, 14 d, 40° C. (in Polymer P6): 99 ppm; active-substance concentration, 28 d, 40° C. (in Polymer P6): 83 ppm; active-substance concentration, 60 d 40° C. (in Polymer P6): 66 ppm; active-substance concentration, 0 d, RT (in Polymer P7): 150 ppm; active-substance concentration, 14 d, 40° C. (in Polymer P7): 105 ppm; active-substance concentration, 28 d, 40° C. (in Polymer P7): 88 ppm; active-substance concentration, 60 d 40° C. (in Polymer P7): 72 ppm; active-substance concentration, 0 d, RT (in Polymer P8): 150 ppm; active-substance concentration, 14 d, 40° C. (in Polymer P8): 101 ppm; active-substance concentration, 28 d, 40° C. (in Polymer P8): 85 ppm; active-substance concentration, 60 d 40° C. (in Polymer P8): 69 ppm; active-substance concentration, 0 d, RT (in Polymer P9): 150 ppm; active-substance concentration, 14 d, 40° C. (in Polymer P9): 97 ppm; active-substance concentration, 28 d, 40° C. (in Polymer P9): 78 ppm; active-substance concentration, 60 d 40° C. (in Polymer P9): 60 ppm
2 | Cn1sc(Cl)cc1=O [CMIT, 5-chloro-N-methylisothiazolin-3-one] | 150 | 94 | 81 | 59 | 150 | 108 | 89 | 66 | 150 | 117 | 93 | 77 | 150 | 111 | 89 | 73 | 150 | 94 | 81 | 59 | active-substance concentration, 0 d, RT (in Polymer P6): 150 ppm; active-substance concentration, 14 d, 40° C. (in Polymer P6): 91 ppm; active-substance concentration, 28 d, 40° C. (in Polymer P6): 76 ppm; active-substance concentration, 60 d 40° C. (in Polymer P6): 55 ppm; active-substance concentration, 0 d, RT (in Polymer P7): 150 ppm; active-substance concentration, 14 d, 40° C. (in Polymer P7): 96 ppm; active-substance concentration, 28 d, 40° C. (in Polymer P7): 80 ppm; active-substance concentration, 60 d 40° C. (in Polymer P7): 64 ppm; active-substance concentration, 0 d, RT (in Polymer P8): 150 ppm; active-substance concentration, 14 d, 40° C. (in Polymer P8): 94 ppm; active-substance concentration, 28 d, 40° C. (in Polymer P8): 81 ppm; active-substance concentration, 60 d 40° C. (in Polymer P8): 59 ppm; active-substance concentration, 0 d, RT (in Polymer P9): 150 ppm; active-substance concentration, 14 d, 40° C. (in Polymer P9): 82 ppm; active-substance concentration, 28 d, 40° C. (in Polymer P9): 70 ppm; active-substance concentration, 60 d 40° C. (in Polymer P9): 51 ppm
3 | CCCCCCCCn1sc(Cl)c(Cl)c1=O [DCOIT, dichloroctylisothiazolinone] | 300 | 244 | 183 | 94 | 300 | 244 | 195 | 109 | 300 | 232 | 183 | 112 | 300 | 246 | 198 | 123 | 300 | 230 | 180 | 94 | active-substance concentration, 0 d, RT (in Polymer P6): 300 ppm; active-substance concentration, 14 d, 40° C. (in Polymer P6): 222 ppm; active-substance concentration, 28 d, 40° C. (in Polymer P6): 184 ppm; active-substance concentration, 60 d 40° C. (in Polymer P6): 98 ppm; active-substance concentration, 0 d, RT (in Polymer P7): 300 ppm; active-substance concentration, 14 d, 40° C. (in Polymer P7): 228 ppm; active-substance concentration, 28 d, 40° C. (in Polymer P7): 189 ppm; active-substance concentration, 60 d 40° C. (in Polymer P7): 106 ppm; active-substance concentration, 0 d, RT (in Polymer P8): 300 ppm; active-substance concentration, 14 d, 40° C. (in Polymer P8): 230 ppm; active-substance concentration, 28 d, 40° C. (in Polymer P8): 180 ppm; active-substance concentration, 60 d 40° C. (in Polymer P8): 94 ppm; active-substance concentration, 0 d, RT (in Polymer P9): 300 ppm; active-substance concentration, 14 d, 40° C. (in Polymer P9): 219 ppm; active-substance concentration, 28 d, 40° C. (in Polymer P9): 165 ppm; active-substance concentration, 60 d 40° C. (in Polymer P9): 87 ppm
4 | CCCCNC(=O)OCC#CI [Iodopropynyl butyl carbamate, iodopropynyl butyl carbamate] | 250 | 206 | 176 | 84 | 250 | 225 | 183 | 122 | 250 | 221 | 190 | 107 | 250 | 212 | 188 | 101 | 250 | 206 | 176 | 84 | active-substance concentration, 0 d, RT (in Polymer P6): 250 ppm; active-substance concentration, 14 d, 40° C. (in Polymer P6): 201 ppm; active-substance concentration, 28 d, 40° C. (in Polymer P6): 174 ppm; active-substance concentration, 60 d 40° C. (in Polymer P6): 80 ppm; active-substance concentration, 0 d, RT (in Polymer P7): 250 ppm; active-substance concentration, 14 d, 40° C. (in Polymer P7): 207 ppm; active-substance concentration, 28 d, 40° C. (in Polymer P7): 178 ppm; active-substance concentration, 60 d 40° C. (in Polymer P7): 87 ppm; active-substance concentration, 0 d, RT (in Polymer P8): 250 ppm; active-substance concentration, 14 d, 40° C. (in Polymer P8): 206 ppm; active-substance concentration, 28 d, 40° C. (in Polymer P8): 176 ppm; active-substance concentration, 60 d 40° C. (in Polymer P8): 84 ppm; active-substance concentration, 0 d, RT (in Polymer P9): 250 ppm; active-substance concentration, 14 d, 40° C. (in Polymer P9): 191 ppm; active-substance concentration, 28 d, 40° C. (in Polymer P9): 160 ppm; active-substance concentration, 60 d 40° C. (in Polymer P9): 78 ppm
5 | Cn1sccc1=O [MIT, methyl-4-isothiazolin-3-one] | 250 | 217 | 156 | 131 | 250 | 181 | 139 | 116 | 250 | 171 | 140 | 122 | 250 | 164 | 136 | 113 | 250 | 151 | 119 | 94 | active-substance concentration, 0 d, RT (in Polymer P6): 250 ppm; active-substance concentration, 14 d, 40° C. (in Polymer P6): 143 ppm; active-substance concentration, 28 d, 40° C. (in Polymer P6): 117 ppm; active-substance concentration, 60 d 40° C. (in Polymer P6): 87 ppm; active-substance concentration, 0 d, RT (in Polymer P7): 250 ppm; active-substance concentration, 14 d, 40° C. (in Polymer P7): 149 ppm; active-substance concentration, 28 d, 40° C. (in Polymer P7): 123 ppm; active-substance concentration, 60 d 40° C. (in Polymer P7): 91 ppm; active-substance concentration, 0 d, RT (in Polymer P8): 250 ppm; active-substance concentration, 14 d, 40° C. (in Polymer P8): 151 ppm; active-substance concentration, 28 d, 40° C. (in Polymer P8): 119 ppm; active-substance concentration, 60 d 40° C. (in Polymer P8): 94 ppm; active-substance concentration, 0 d, RT (in Polymer P9): 250 ppm; active-substance concentration, 14 d, 40° C. (in Polymer P9): 131 ppm; active-substance concentration, 28 d, 40° C. (in Polymer P9): 98 ppm; active-substance concentration, 60 d 40° C. (in Polymer P9): 80 ppm
